Holding throughout (assay): NCI anticancer screen, dose series, 48 h
Assay [1] has as its system HCT-116 colon.
Assay [2] relates to KM12 colon.
Assay [3] concerns NCI-H23 lung.
The test system of assay [4] is NCI/ADR-RES ovarian.
Assay [5] concerns SF-295 CNS.
In assay [6] the test system is DLD-1 colon.
In assay [7] the test system is DMS 114 small cell lung.
Assay [8] has as its system DMS 273 small cell lung.
The test system of assay [9] is HOP-18 NSCLC.
Assay [10] deals with KM20L2 colon.
Assay [11] concerns LXFL 529 NSCLC.
Assay [12] concerns M19-MEL melanoma.
Assay [13] concerns RXF-631 renal.
In assay [14] the test system is SNB-78 CNS.
The subject of assay [15] is XF 498 CNS.

Several values for one entry are separate records, joined by “and”; a condition that tells them apart may be missing. Identical values can stand only once.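 Method: 48-hour compound exposure of cells in 96-well plates, five concentrations, linear interpolation of endpoints. Definition used: TGI = concentration required for complete inhibition of growth.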

As to `CN(CCn1cnc2c1c(=O)n(C)c(=O)n2C)C1CCCCC1`, the TGI in assay [1], in [2], in assay [3], in [4] and in [5] was > 100 µM throughout.

For the compound `CN(C)c1ccc(C(=C(c2ccc(N(C)C)cc2)c2ccc(N(C)C)cc2)c2ccc(N(C)C)cc2)cc1`, the TGI in [6] is 41.5 µM; in assay [7] it was 49.3 µM; in assay [8] it was 38.9 µM; in [1] it was 42.1 µM; in assay [9], 26.1 µM; in [2], 47.8 µM. In addition, the TGI in assay [10] is 42.4 µM; in [11], 25.6 µM; in assay [12], 70.9 µM; in [3], 33.6 µM; in assay [13], 40.6 µM; in assay [5], 27.8 µM. The TGI in assay [14] was > 100 µM.

For the compound `CC(=O)OC(/C=C/c1ccccc1)P1(=O)N(CC(C)(C)C)[C@@H]2CCCC[C@H]2N1CC(C)(C)C` (stereo not given in full), the TGI in assay [1] was 15 µM and 13.4 µM; in assay [2], 26.1 µM and 21.4 µM; in assay [3] it was 20.3 µM and 17.1 µM; in [4] it was 20.6 µM and 18.3 µM; in assay [5], 25.4 µM and 14.9 µM.

Regarding `CN(C)CCNC(=O)c1cccc2c(NCCN(C)C)c3ccccc3nc12`, the TGI in [1] was found to be 3.9 µM; in [2], 11.8 µM; in assay [3], 7.03 µM; in [4] it was 25.7 µM; in [5], 17.6 µM.

As for `Cc1c(Cl)c2ccccc2n1S(=O)(=O)c1ccccc1`, the TGI in assay [6], in assay [7], in [8], in assay [1], in [2] and in assay [10] was > 100 µM in each case. For the same compound, the TGI in [11], in assay [3], in assay [5] and in assay [15] was > 100 µM each time.

As for `Cn1c(=O)c(C(=O)Nc2nc(C34CC5CC(CC(C5)C3)C4)cs2)c(O)c2ccccc21`, the TGI in [1] is > 100 µM; in assay [2], > 100 µM; in [3], > 100 µM; in assay [4] it was 70.2 µM; in assay [5], > 100 µM.

For the compound `CN1CCCC2(CCCc3ccccc32)C1` (stereo not given), the TGI in [6], in [7], in [8], in [1], in assay [2] and in assay [10] was > 100 µM throughout. Also, the TGI in [11], in assay [12], in [3], in assay [13], in assay [5] and in [14] was > 100 µM each time.

For `COc1ccc2nc3ccc(OC)cc3c(SCCO)c2c1`, the TGI is > 69.8 µM in assay [1]; > 63.8 µM in assay [2]; > 100 µM in assay [3]; > 80.3 µM in assay [4]; > 100 µM in [5].

As to `O=S(=O)(O)c1cc(O)c2c(N=Cc3ccccc3O)cc(S(=O)(=O)O)cc2c1`, the TGI in assay [1], in [2], in [3], in [4] and in [5] was > 100 µM in each case.

`C1CCC2(CC1)O[C@@H]1[C@@H](O2)[C@@H](O[C@H]2O[C@@H]3COC4(CCCCC4)O[C@H]3[C@@H]3OC4(CCCCC4)O[C@@H]23)O[C@@H]2COC3(CCCCC3)O[C@@H]12`: the TGI in assay [1], in assay [2], in assay [3], in assay [4] and in assay [5] was > 100 µM throughout.

Regarding `O=C1NC(SSC2=NNC3(C(=O)N2)c2ccccc2-c2ccccc23)=NNC12c1ccccc1-c1ccccc12`, the TGI in [1], in assay [2], in assay [3], in [4] and in assay [5] was > 10 µM throughout.

With `COC(=O)NCCc1[nH]nc2c1C(=O)C=C(N1CCOCC1)C2=O`, the TGI in assay [1], in [2], in assay [3], in [4] and in assay [5] was > 100 µM in each case.

Consider `Nn1c(COc2cccc(OCc3n[nH]c(=S)n3N)c2)n[nH]c1=S`, for which the TGI in [1], in assay [2], in assay [3], in [4] and in [5] was > 100 µM throughout.

As for `Clc1ccc(SC(/C=C/NNC2=NC(c3ccccc3)C(c3ccccc3)=NN2)c2ccccc2)cc1` (stereo not given), the TGI is > 100 µM in assay [6]; 75.6 µM in assay [7]; > 100 µM in [8]; 92 µM in [1]; 67.2 µM in assay [2]; 53.7 µM in assay [10]. Also, the TGI in assay [12] is 99.4 µM; in assay [3] it was 61.6 µM; in assay [13] it was > 100 µM; in assay [5], 89.6 µM; in assay [14] it was > 100 µM; in [15], 54.6 µM.

In the case of `O=CN1CCN(C(=O)c2ccc(Cl)cc2Cl)C1=S`, the TGI in assay [1], in assay [2], in assay [3], in assay [4] and in assay [5] was > 100 µM each time.

With `CCC(CON(C)c1ccccc1)(SC)SC`, the TGI in [1], in assay [2], in assay [3], in assay [4] and in assay [5] was > 100 µM throughout.

Regarding `NC(N)=N/N=C/c1nc2n(c1[N+](=O)[O-])CCS2`, the TGI is 54.1 µM in assay [1]; > 100 µM in assay [2]; 42.6 µM in assay [3]; > 100 µM in assay [4]; 98.4 µM in assay [5].

With `Cc1cccc2c(=O)c([Se]c3coc4c(C)cccc4c3=O)coc12`, the TGI in [6] was 41.5 µM; in assay [7] it was 31.7 µM; in assay [8], > 100 µM; in [1], 17.2 µM; in assay [9] it was 41.2 µM; in assay [2], 26.8 µM. In addition, the TGI in assay [10] worked out at 52.6 µM; in assay [11] it was 29.2 µM; in [12], 30.3 µM; in assay [3] it was 32.2 µM; in assay [5], 17.8 µM; in assay [14], 30.4 µM. The same compound gave a TGI in assay [15] of 34.8 µM.

For the origin of these results see PubChem BioAssay (NCI).
